The results in this text go back to patent US10124076B2, “Imaging agents and methods of use thereof” (Huntington Medical Research Institutes, priority 2007, dated 2018).

A short description of data set [1]: T1 relaxation time of the hyperpolarized product, experimentally determined. Type of data set: physicochemical. As for the experimental part: Sub-second carbon imaging is greatly simplified when the signal of interest exceeds the background signal from natural abundance resonances. This is possible when a ^13C hyperpolarized agent is injected. […] Long T1 (in excess of ten seconds) is obtained for ^13C in small molecules at sites where there is no directly attached proton. Deuteration can be used to achieve this (e.g., glucose) and it occurs naturally for carbonyls. Enhancements in excess of 1000 from hyperpolarization are obtained in the first 5 T1 (i.e., imaging and spectroscopy experiment should be accomplished within 100-225 seconds after hyperpolarizing the molecules). For the molecules proposed, the hyperpolarization decays with a time constant of 20-45 seconds (T1 relaxation time of the agent) and therefore long scan times are not feasible. In order to overcome this problem, the inventors have successfully reprogrammed several fast imaging pulse sequences with multinuclear capability (multinuclear pulse sequences, broadband amplifier, and multinuclear coils).
Specifically, the inventors have identified four water soluble biomolecules for hyperpolarization. The four molecules can be either commercially obtained or custom synthesized. In the cases of hyperpolarization by PASADENA, both the precursors and the hydrogenated products are water soluble and the hydrogenation experiments have achieved high yields. T1 times were experimentally determined.

Data set [2] is described as follows: DNP hyperpolarization in HyperSense polarizer, 13C NMR decay of magnetization. To be noted: DNP hyperpolarized. An excerpt: FIG. 9. ^13C NMR spectrum of DNP hyperpolarized CD3 ^13COO^−Na using OX63 radical (Sample 1). The SNR from the spectral sequence depicted in FIG. 9 are shown in the corresponding table.
FIG. 10. 13C NMR spectrum of hyperpolarized CD3 ^13COO^−Na^+ using Finland radical (Sample 2). The SNR from the spectral sequence depicted in FIG. 10 are shown in the corresponding table.
C. A sample of the proposed molecule, Sodium ^13Cl-acetate-d3, was hyperpolarized in water with two different electron donors (FIGS. 9 & 10) in a DNP HyperSense polarizer, and the time course of the decay of the magnetization studied. The SNR obtained from the first spectrum collected from polarized sample 2 is clearly less than that obtained from sample 1, showing that Sodium acetate has a preference for the more polar radical OX63. Both OX63 and Finland are triaryl based radicals and are commercially available form Oxford Instruments, UK. Clearly, the inventors' molecule can render over 10,000 fold signal enhancement by DNP with very long T1 time. The polarization will survive around 325 seconds (5 T1). This allows a large enough time (>5 minutes) window to effectively monitor the first six minutes of uptake and metabolism of hyperpolarized sodium acetate within the glial cells of the rat brain by ^13C NMR.

Take “1-^13C glucose [perdeuterated 1-^13C of glucose]”: the “experimentally determined T1” value in data set [1] (1-13C of perdeuterated glucose) stood at 20 s. The “time window of observing the transfer of polarization (5 T1)” value in data set [1] (hyperpolarized glucose metabolized to TCA cycle metabolites) was about 100 s.

For Sodium ^13Cl-acetate-d3, in data set [2], the “polarization survival time (5 T1)” value is listed as “around 325 seconds”.

For ^13C1-^13C5 deuterated glutamine, the “T1 of the Product” value in data set [1] (Table 2, product of PASADENA or DNP hyperpolarization) was determined as 40 s.
